Results taken from paper PMC11850406, “Large-scale screening of HIV-1 T-cell epitopes restricted by 12 prevalent HLA-A allotypes in Northeast Asia and universal detection of HIV-1-specific CD8^+ T cells” (Frontiers in Microbiology, 2025).
Read-outs that look alike come from different tables or passages of the source. Where no end group is shown, it is not given here.

Legend:
[1] = molecular target: T1, HLA-A3101 (Homo sapiens, UniProt P04439, A270S/D185E/E176V/E277Q/F33T/G231S/G80R/H175R/I121M/I218V/I322F/K168Q/L300P/L318F/M331R/P217A/Q94H/R138Q/T323A/T345S/T97I/V358M); assay: Peptide competitive binding assay, HMy2.CIR cells expressing A3101; details: for IC50: read-out: Affinity
T1 construct: expressed in transfected cells; host or cells: HMy2.CIR

[2] = molecular target: T2, HLA-A0201 (Homo sapiens, UniProt P04439, D140Y/D185E/D98H/E176V/E277Q/G131W/G231S/I119V/I121R/I166T/I218V/L300P/L318F/N151K/N90K/P208A/P217A/Q86G/Q94H/R138H/R169H/T345S); assay: cell-based; type: binding; details: for inhibition at 5 µM / inhibition at 15 µM / 5-μM inhibition (%) / 15-μM inhibition (%): A0201, 24 h, 4°C, flow cytometry; for inhibition at 5 µM / 5-μM inhibition (%): peptide 5 μM vs FITC-labeled reference peptide 300 nM; for inhibition at 5 µM: read-out: 5-μM inhibition (%); for inhibition at 15 µM / 15-μM inhibition (%): peptide 15 μM vs FITC-labeled reference peptide 300 nM; for inhibition at 15 µM: read-out: 15-μM inhibition (%)
T2 construct: expressed in transfected cells; host or cells: HMy2.CIR

[3] = molecular target: T3, HLA-A0207 (Homo sapiens, UniProt P04439, D140Y/D185E/D98H/E176V/E277Q/G131W/G231S/I119V/I121R/I166T/I218V/L300P/L318F/N151K/N90K/P208A/P217A/Q86G/Q94H/R138H/R169H/T345S/Y123C); assay: Peptide competitive binding assay, HMy2.CIR cells expressing A0207; details: 24 h, 4°C, flow cytometry; for inhibition at 5 µM / 5-μM inhibition (%): peptide 5 μM vs FITC-labeled reference peptide 300 nM; for inhibition at 15 µM / 15-μM inhibition (%): peptide 15 μM vs FITC-labeled reference peptide 300 nM
T3 construct: expressed in transfected cells; host or cells: HMy2.CIR

[4] = molecular target: HLA-A1102 (Homo sapiens, UniProt P04439, A114D/D185E/E176A/E43K/F33Y/L180Q/S129P/T187R); assay: cell-based; type: binding; details: for inhibition at 5 µM: read-out: 5-μM inhibition (%); for inhibition at 15 µM: read-out: 15-μM inhibition (%)
[5] = molecular target: HLA-A3303 (Homo sapiens, UniProt P04439, A270S/D185E/E176V/E277Q/E87N/F33T/G231S/H175R/I121M/I218V/I322F/K168Q/L300P/L318F/M331R/P217A/Q86R/Q94H/R138Q/T323A/T345S/T97I/V358M); assay: Peptide competitive binding assay, HMy2.CIR cells expressing A3303; details: for inhibition at 5 µM / inhibition at 15 µM: A3303, 24 h, 4°C, flow cytometry; for inhibition at 5 µM: peptide 5 μM vs FITC-labeled reference peptide 300 nM; for inhibition at 15 µM: peptide 15 μM vs FITC-labeled reference peptide 300 nM; for IC50: read-out: Affinity
[6] = molecular target: T4, HLA-A0206 (Homo sapiens, UniProt P04439, D140Y/D185E/D98H/E176V/E277Q/F33Y/G131W/G231S/I119V/I121R/I166T/I218V/L300P/L318F/N151K/N90K/P208A/P217A/Q86G/Q94H/R138H/R169H/T345S); assay: Peptide competitive binding assay, HMy2.CIR cells expressing A0206; details: 24 h, 4°C, flow cytometry; for 5-μM inhibition (%): peptide 5 μM vs FITC-labeled reference peptide 300 nM; for 15-μM inhibition (%): peptide 15 μM vs FITC-labeled reference peptide 300 nM
T4 construct: expressed in transfected cells; host or cells: HMy2.CIR

[7] = molecular target: T5, HLA-A1101 (Homo sapiens, UniProt P04439, A114D/D185E/E176A/F33Y/L180Q/S129P/T187R); assay: cell-based; type: binding; details: for inhibition at 5 µM / inhibition at 15 µM: A1101, 24 h, 4°C, flow cytometry; for inhibition at 5 µM: peptide 5 μM vs FITC-labeled reference peptide 300 nM, read-out: 5-μM inhibition (%); for inhibition at 15 µM: peptide 15 μM vs FITC-labeled reference peptide 300 nM, read-out: 15-μM inhibition (%)
T5 construct: expressed in transfected cells; host or cells: HMy2.CIR

[8] = molecular target: T6, HLA-A3001 (Homo sapiens, UniProt P04439, D140H/D185E/E176W/F33S/G80R/H175R/K168Q/R138E/R41S); assay: cell-based; type: binding; details: A3001, 24 h, 4°C, flow cytometry; for 5-μM inhibition (%): peptide 5 μM vs FITC-labeled reference peptide 300 nM; for 15-μM inhibition (%): peptide 15 μM vs FITC-labeled reference peptide 300 nM
T6 construct: expressed in transfected cells; host or cells: HMy2.CIR

[9] = molecular target: T7, HLA-A0203 (Homo sapiens, UniProt P04439, A173T/D140Y/D185E/D98H/E277Q/G131W/G231S/I119V/I121R/I166T/I218V/L180W/L300P/L318F/N151K/N90K/P208A/P217A/Q86G/Q94H/R138H/R169H/T345S); assay: cell-based; type: binding; details: A0203, 24 h, 4°C, flow cytometry
T7 construct: expressed in transfected cells; host or cells: HMy2.CIR

[10] = A3101, peptide 5 μM vs FITC-labeled reference peptide 300 nM, 24 h, 4°C, flow cytometry
[11] = A3101, peptide 15 μM vs FITC-labeled reference peptide 300 nM, 24 h, 4°C, flow cytometry
[12] = A1102, peptide 5 μM vs FITC-labeled reference peptide 300 nM, 24 h, 4°C, flow cytometry
[13] = A1102, peptide 15 μM vs FITC-labeled reference peptide 300 nM, 24 h, 4°C, flow cytometry

Q: Which results are given for KAREFSSER [Peptide P100]?
A: IC50 ([1]; A3101, class from inhibition at 5 and 15 μM of FITC-labeled reference peptide binding): 5 to 15 µM; inhibition at 5 µM [1, 10]: 42.9%; inhibition at 15 µM [1, 11]: 95.1%

Q: Which IC50 [2] does the source give for QLPEKDSWTV [Peptide P14] here?
A: 5 to 15 µM

Q: And the inhibition at 5 µM [2]?
A: 27.6%

Q: And the inhibition at 15 µM [2]?
A: 81.5%

Q: And the inhibition at 5 µM [3]?
A: 0%

Q: And the inhibition at 15 µM [3]?
A: 8.35%

Q: How did the “5-μM inhibition (%)” value [1, 10] turn out when VTGIRKNYR [Peptide P99] was run?
A: 0.00%

Q: What about the “15-μM inhibition (%)” value [1, 11] of the same sequence?
A: 15.00%

Q: For KVLKQVTEK [Peptide P87], which “5-μM inhibition (%)” value [4, 12] is on record?
A: 5.66%

Q: And the “15-μM inhibition (%)” value [4, 13]?
A: 16.76%

Q: What does the source list for IQNFRVYYR [Peptide P112]?
A: inhibition at 5 µM [1, 10]: 20.1%; inhibition at 15 µM [1, 11]: 25.7%; inhibition at 5 µM [5]: 48.7%; inhibition at 15 µM [5]: 55.1%; IC50 [5]: 5 to 15 µM

Q: What does the source list for KIVRMYSPV [Peptide P71]?
A: 5-μM inhibition (%) [6]: 6.54%; 15-μM inhibition (%) [6]: 14.21%

Q: MTKILEPFR [Peptide P102] was tested. Which inhibition at 5 µM [1, 10] did it give?
A: 60.2%

Q: What about the inhibition at 15 µM [1, 11] of the same sequence?
A: 88.3%

Q: And the IC50 [1]?
A: < 5 µM

Q: And the inhibition at 5 µM [5]?
A: 69.5%

Q: What about the inhibition at 15 µM [5] of the same sequence?
A: 70%

Q: And the IC50 [5]?
A: < 5 µM

Q: RSNFKGSKR [Peptide P97] was tested. Which inhibition at 5 µM [1, 10] did it give?
A: 66.6%

Q: What about the inhibition at 15 µM [1, 11] of the same sequence?
A: 92.9%

Q: And the IC50 [1]?
A: < 5 µM

Q: What does the source list for KIILVAVHV [Peptide P75]?
A: 5-μM inhibition (%) [6]: 3.69%; 15-μM inhibition (%) [6]: 5.11%

Q: How did the “5-μM inhibition (%)” value [3] turn out when YLKDQKFLGL [Peptide P78] was run?
A: 11.50%

Q: And the “15-μM inhibition (%)” value [3]?
A: 30.40%

Q: How did the “5-μM inhibition (%)” value [3] turn out when VLDVGDAYF [Peptide P81] was run?
A: 0.00%

Q: And the “15-μM inhibition (%)” value [3]?
A: 23.16%

Q: Which results are given for SILDIRQGPK [Peptide P33]?
A: IC50 [7]: < 5 µM; inhibition at 5 µM [7]: 83.2%; inhibition at 15 µM [7]: 93.1%; IC50 [4]: 5 to 15 µM; inhibition at 5 µM [4, 12]: 16.8%; inhibition at 15 µM [4, 13]: 50.6%

Q: How did the IC50 [7] turn out when TSLPKQEQK [Peptide P31] was run?
A: < 5 µM

Q: What about the inhibition at 5 µM [7] of the same sequence?
A: 75.2%

Q: And the inhibition at 15 µM [7]?
A: 86.5%

Q: What about the inhibition at 5 µM [4, 12] of the same sequence?
A: 4.16%

Q: What about the inhibition at 15 µM [4, 13] of the same sequence?
A: 18%

Q: What does the source list for KVVPRRKAK [Peptide P93]?
A: 5-μM inhibition (%) [8]: 16.92%; 15-μM inhibition (%) [8]: 41.10%

Q: Which “5-μM inhibition (%)” value [8] does the source give for KVYLSWVPA [Peptide P94] here?
A: 27.40%

Q: And the “15-μM inhibition (%)” value [8]?
A: 45.93%

Q: What does the source list for YMEAEVIPA [Peptide P82]?
A: 5-μM inhibition (%) [3]: 13.67%; 15-μM inhibition (%) [3]: 30.79%

Q: How did the “5-μM inhibition (%)” value [2] turn out when SLFNTVATL [Peptide P10] was run?
A: 15.75%

Q: And the “15-μM inhibition (%)” value [2]?
A: 31.36%

Q: What about the “5-μM inhibition (%)” value ([9]; peptide 5 μM vs FITC-labeled reference peptide 300 nM) of the same sequence?
A: 20.39%

Q: And the “15-μM inhibition (%)” value ([9]; peptide 15 μM vs FITC-labeled reference peptide 300 nM)?
A: 42.50%

Q: And the “5-μM inhibition (%)” value [3]?
A: 0.00%

Q: And the “15-μM inhibition (%)” value [3]?
A: 7.34%

Q: With YQYMDDLYV [Peptide P15] as the sequence, how does the IC50 [2] read?
A: < 5 µM

Q: And the inhibition at 5 µM [2]?
A: 56.5%

Q: What about the inhibition at 15 µM [2] of the same sequence?
A: 83%

Q: What about the inhibition at 5 µM [3] of the same sequence?
A: 20.1%

Q: What about the inhibition at 15 µM [3] of the same sequence?
A: 27.6%

Q: What does the source list for YQLEKDPIV [Peptide P11]?
A: 5-μM inhibition (%) [2]: 5.87%; 15-μM inhibition (%) [2]: 28.56%; 5-μM inhibition (%) [3]: 5.57%; 15-μM inhibition (%) [3]: 12.66%
